Assay results taken from patent US6552089B1, “Method of treating or preventing alopecia” (priority 1992, dated 2003).
Values joined by “and” are separate entries in the source; they are usually repeats but may differ in a detail not shown here. Equal values may be shown once. Read-outs that look alike come from different tables or passages of the source. Values belong to the compound of their own block, whether it stands above or below them.

Columns and labels:
[1] = tested on: arabinoside-C induced alopecia; test: arabinoside-C induced alopecia in 8 day old rats, tellurate given i.p. (method of Hussein et al.); type: in vivo, Sprauge Dawley rats; conditions: for effect on alopecia of a tellurate regimen / No. of subjects with alopecia grade 0 (no detectable alopecia) / No. of subjects with alopecia grade 1+ (mild, hair loss <50%) / No. of subjects with alopecia grade 2+ (moderately severe, hair loss >50%) / No. of subjects with alopecia grade 3+ (total or virtually total, hair loss >79%): rats; for No. of subjects with alopecia grade 0 (no detectable alopecia) / No. of subjects with alopecia grade 1+ (mild, hair loss <50%) / No. of subjects with alopecia grade 2+ (moderately severe, hair loss >50%) / No. of subjects with alopecia grade 3+ (total or virtually total, hair loss >79%): day 9
Protocol: 28, 1990, pp. 1564-1566. […] The cycle of treatment lasted 7 days. […] A second experiment was carried out using the same procedure which is outlined above.

[2] = tested on: alopecia which is induced by cyclophosphamide; conditions: rats
[3] = tested on: alopecia under carboplatinum/etoposide chemotherapy; test: phase II chemotherapy trial, alopecia score; type: in vivo, patients; conditions: Group II: tellurate 3 mg/m^2 three times a week plus carboplatinum/etoposide chemotherapy; 12 weeks after chemotherapy
Protocol: A phase II chemotherapy trial was carried out in patients having unresectable and metastatic non-small cell lung tumors. The chemotherapy was based on carboplatinum 300.0 mg/m^2/IV daily and etoposide 200.0 mg/m^2 on day 3, 5 and 7 for a total of 12 weeks of chemotherapy which was given to group I. In addition to the same chemotherapy, ammonium trichloro (O,O′-dioxoethylene)tellurate was given to Group II at a dose of 3 mg/m^2 three times a week starting two weeks before the chemotherapy and continued for 12 weeks after the chemotherapy. The alopecia of both groups was observed 12 weeks after the chemotherapy and was as follows: […]

[4] = tested on: arabinoside-C induced alopecia; test: topical application in glycerin to back of arabinoside-C injected rats; type: in vivo; set-up: key to Grade of Alopecia: 0 = no alopecia; 1 = less than 20% alopecia; 2 = less than 50% alopecia; 3 = more than 50% alopecia; 4 = total alopecia; conditions: for Grade of Alopecia: arabinoside-C 25 mg/kg 2 h after each treatment
Protocol: A stock composition of 1 mg. of ammonium trichloro (O,O′-dioxoethylene) tellurate in 1 ml. of glycerin was prepared. The stock composition was diluted with glycerin to give the following concentrations per ml. so that the stated dose could be applied topically by application of 1 ml. of solution. The solution was applied to the entire back surface of rats once daily for a period of 7 days. Two hours after each treatment the rats were injected with 25 mg/kg of arabinoside-C once daily. Control rats were treated with a glycerin and injected with arabinoside-C.

[5] = tellurate 0.5 mg/Kg IP daily ×7 days with arabinoside-C 25 mg/kg i.p., first experiment
[6] = tellurate 0.5 mg/Kg IP daily ×7 days with arabinoside-C 50 mg/kg i.p., first experiment
[7] = tellurate 0.5 mg/Kg IP every other day ×7 days with arabinoside-C 25 mg/kg i.p., first experiment
[8] = tellurate 0.5 mg/Kg IP every other day ×7 days with arabinoside-C 50 mg/kg i.p., first experiment
[9] = tellurate 0.5 mg/Kg IP every other day ×7 days with arabinoside-C 50 mg/kg i.p., second experiment
[10] = tellurate 0.5 mg/Kg IP daily ×7 days with cyclophosphamide 20 mg/kg i.p. ×7 days, listed as ammonium trichloro (0,0′-dioxoethylene) tellurate
[11] = arabinoside-C 25 mg/kg daily ×7 days alone, first experiment
[12] = arabinoside-C 50 mg/kg i.p. ×7 days alone, first experiment
[13] = cyclophosphamide 20 mg/kg i.p. ×7 days alone

SMILES: Cl[TeH]1(Cl)(Cl)OCCO1.N [ammonium-trichloro (O,O′-dioxoethylene) tellurate]
- effect on alopecia of a tellurate regimen ([1]; given daily): almost completely avoids alopecia
- effect on alopecia of a tellurate regimen ([1]; given every other day): provides some protection from alopecia
- histological examination of the skin ([1]; subjects treated with arabinoside-C and tellurate): no hair loss or reduced hair loss
- No. of subjects with alopecia grade 0 (no detectable alopecia) [1, 5]: 0
- No. of subjects with alopecia grade 1+ (mild, hair loss <50%) [1, 5]: 4
- No. of subjects with alopecia grade 2+ (moderately severe, hair loss >50%) [1, 5]: 0
- No. of subjects with alopecia grade 3+ (total or virtually total, hair loss >79%) [1, 5]: 0
- No. of subjects with alopecia grade 0 (no detectable alopecia) ([1]; tellurate 0.5 mg/Kg IP daily ×7 days with arabinoside-C 25 mg/kg i.p., second experiment): 6
- No. of subjects with alopecia grade 0 (no detectable alopecia) [1, 6]: 0
- No. of subjects with alopecia grade 1+ (mild, hair loss <50%) [1, 6]: 3
- No. of subjects with alopecia grade 2+ (moderately severe, hair loss >50%) [1, 6]: 1
- No. of subjects with alopecia grade 3+ (total or virtually total, hair loss >79%) [1, 6]: 0
- No. of subjects with alopecia grade 0 (no detectable alopecia) ([1]; tellurate 0.5 mg/Kg IP daily ×7 days with arabinoside-C 50 mg/kg i.p., second experiment): 6
- No. of subjects with alopecia grade 0 (no detectable alopecia) [1, 7]: 0
- No. of subjects with alopecia grade 1+ (mild, hair loss <50%) [1, 7]: 4
- No. of subjects with alopecia grade 2+ (moderately severe, hair loss >50%) [1, 7]: 0
- No. of subjects with alopecia grade 3+ (total or virtually total, hair loss >79%) [1, 7]: 0
- No. of subjects with alopecia grade 0 (no detectable alopecia) ([1]; tellurate 0.5 mg/Kg IP every other day ×7 days with arabinoside-C 25 mg/kg i.p., second experiment): 6
- No. of subjects with alopecia grade 0 (no detectable alopecia) [1, 8]: 0
- No. of subjects with alopecia grade 1+ (mild, hair loss <50%) [1, 8]: 1
- No. of subjects with alopecia grade 2+ (moderately severe, hair loss >50%) [1, 8]: 3
- No. of subjects with alopecia grade 3+ (total or virtually total, hair loss >79%) [1, 8]: 0
- No. of subjects with alopecia grade 1+ (mild, hair loss <50%) [1, 9]: 1
- No. of subjects with alopecia grade 2+ (moderately severe, hair loss >50%) [1, 9]: 2
- No. of subjects with alopecia grade 3+ (total or virtually total, hair loss >79%) [1, 9]: 3
- protection against cyclophosphamide induced alopecia ([2]; 0.5 mg/kg/i.p. in conjunction with cyclophosphamide): mild protection
- No. of subjects with alopecia grade 1+ (mild, hair loss <50%) ([2]; tellurate 0.5 mg/Kg IP daily ×7 days with cyclophosphamide 20 mg/kg i.p. ×7 days): 4
- No. of subjects with alopecia grade 0 (no detectable alopecia) [2, 10]: 2
- No. of subjects with alopecia grade 1+ (mild, hair loss <50%) [2, 10]: 2
- No. of subjects with alopecia grade 2+ (moderately severe, hair loss >50%) [2, 10]: 1
- number with alopecia score 0 [3]: 122
- number with alopecia score I (casual alopecia) [3]: 26
- number with alopecia score II (>50% alopecia) [3]: 40
- number with alopecia score III (<50% alopecia) [3]: 12
- number with alopecia score IV (total alopecia) [3]: 0
- percentage with alopecia score 0 [3]: 61.00%
- percentage with alopecia score I (casual alopecia) [3]: 13.00%
- percentage with alopecia score II (>50% alopecia) [3]: 20.00%
- percentage with alopecia score III (<50% alopecia) [3]: 6.00%
- percentage with alopecia score IV (total alopecia) [3]: 0.00%
- Grade of Alopecia ([4]; 10 ug/rat topical in glycerin once daily 7 days): 3 (3 = more than 50% alopecia)
- Grade of Alopecia ([4]; 20 ug/rat topical in glycerin once daily 7 days): 1 (1 = less than 20% alopecia)
- rats that showed 0% alopecia ([4]; 50 ug topical, arabinoside-C 25 mg/kg): 100%
- Grade of Alopecia ([4]; 50 ug/rat topical in glycerin once daily 7 days): 0
- Grade of Alopecia ([4]; 100 ug/rat topical in glycerin once daily 7 days): 2 (2 = less than 50% alopecia)
- Grade of Alopecia ([4]; 200 ug/rat topical in glycerin once daily 7 days): 3 (3 = more than 50% alopecia)
- dose response of topical effect on alopecia ([4]; 10-200 ug/rat topical, arabinoside-C 25 mg/kg): A dose response effect was observed

- No. of subjects with alopecia grade 0 (no detectable alopecia) [1, 11]: 0
- No. of subjects with alopecia grade 1+ (mild, hair loss <50%) [1, 11]: 0
- No. of subjects with alopecia grade 2+ (moderately severe, hair loss >50%) [1, 11]: 0
- No. of subjects with alopecia grade 3+ (total or virtually total, hair loss >79%) [1, 11]: 3
- No. of subjects with alopecia grade 3+ (total or virtually total, hair loss >79%) ([1]; arabinoside-C 25 mg/kg i.p. ×7 days alone, second experiment): 8
- No. of subjects with alopecia grade 0 (no detectable alopecia) [1, 12]: 0
- No. of subjects with alopecia grade 1+ (mild, hair loss <50%) [1, 12]: 0
- No. of subjects with alopecia grade 2+ (moderately severe, hair loss >50%) [1, 12]: 0
- No. of subjects with alopecia grade 3+ (total or virtually total, hair loss >79%) [1, 12]: 4
- No. of subjects with alopecia grade 3+ (total or virtually total, hair loss >79%) ([1]; arabinoside-C 50 mg/kg i.p. ×7 days alone, second experiment): 8
- histological examination of the skin ([1]; arabinoside-C treated subjects): almost complete loss of hair follicles
- alopecia ([4]; all control animals: glycerin topical, arabinoside-C 25 mg/kg once daily): 100%
SMILES: Nc1ccn([C@@H]2O[C@H](CO)[C@@H](O)[C@@H]2O)c(=O)n1 [arabinoside-C, reference compound]

SMILES: O=P1(N(CCCl)CCCl)NCCCO1 (centres unmarked) [cyclophosphamide, reference compound]
- No. of subjects with alopecia grade 0 (no detectable alopecia) [2, 13]: 1
- No. of subjects with alopecia grade 1+ (mild, hair loss <50%) [2, 13]: 3 and 2
- No. of subjects with alopecia grade 1+ (mild, hair loss <50%) ([2]; cyclophosphamide 20 mg/kg i.p. ×7 days alone, listed as cyclosphosphamide): 10
